“And” between values parts separate entries of the source, which are not always exact repeats. Equal values may be shown once. Read-outs that look alike come from different tables or passages of the source.
Legend:
[1] = biological target: human serum albumin (HSA) (Homo sapiens, UniProt P02768); experiment: Fluorescence ligand titration of HSA: quenching of intrinsic protein (Trp214) fluorescence, fitted Kd, n and FRET efficiency
Method: For absorbance and fluorescence, solutions of the ligand, protein, and protein‐ligand complexes at different concentrations were prepared using PBS 1x buffer. […] The fluorescence intensities of protein‐ligand complexes were corrected for inner‐filter effects based on the absorbance of the ligands at the excitation and emission wavelengths ( IDA,cor=IDA10^(Absex+Absem)/2 ).^[ [19] ^] The fluorescence of the ligands in the absence of HSA was also recorded at 100 µM concentration. Spectral overlaps used to compute FRET rates were computed from the measured area‐normalized D emission and A absorption spectra and are reported in the Supporting Information. Protein and ligand solutions were freshly prepared, and titrations were carried out in the cuvette right before the measurement. The average of three measurements for the complexes at each ligand concentration was used to plot the spectra and compute FRET efficiencies following this formula: (10) E=1−IDA/ID where IDA is the intensity of the complex and ID the intensity of HSA in the absence of ligand.
Efficiencies were corrected based on the percentage of protein‐ligand complex formed in each solution, based on the measured Kd values, then final efficiencies were averaged over the three concentrations.

[2] = system: HSA; settings: cited from earlier work
[3] = 5 µM HSA, PBS 1x, 295 nm excitation, IFE-corrected (carprofen: 280 nm)
[4] = Kd, excitation 280 nm, IFE-corrected
[5] = Kd, excitation 280 nm, no correction
[6] = Kd, excitation 295 nm, no correction
[7] = corrected by fraction of ligand-bound protein, 295 nm excitation, IFE-corrected (carprofen: 280 nm)
[8] = dissociation binding constant Kd, 5 µM HSA, PBS 1x, 25 °C, 295 nm excitation, IFE-corrected (carprofen: 280 nm)
[9] = excitation 280 nm, IFE-corrected
[10] = excitation 280 nm, no correction
[11] = excitation 295 nm, IFE-corrected
[12] = excitation 295 nm, no correction

human serum albumin (HSA), sequence (P02768 25-609): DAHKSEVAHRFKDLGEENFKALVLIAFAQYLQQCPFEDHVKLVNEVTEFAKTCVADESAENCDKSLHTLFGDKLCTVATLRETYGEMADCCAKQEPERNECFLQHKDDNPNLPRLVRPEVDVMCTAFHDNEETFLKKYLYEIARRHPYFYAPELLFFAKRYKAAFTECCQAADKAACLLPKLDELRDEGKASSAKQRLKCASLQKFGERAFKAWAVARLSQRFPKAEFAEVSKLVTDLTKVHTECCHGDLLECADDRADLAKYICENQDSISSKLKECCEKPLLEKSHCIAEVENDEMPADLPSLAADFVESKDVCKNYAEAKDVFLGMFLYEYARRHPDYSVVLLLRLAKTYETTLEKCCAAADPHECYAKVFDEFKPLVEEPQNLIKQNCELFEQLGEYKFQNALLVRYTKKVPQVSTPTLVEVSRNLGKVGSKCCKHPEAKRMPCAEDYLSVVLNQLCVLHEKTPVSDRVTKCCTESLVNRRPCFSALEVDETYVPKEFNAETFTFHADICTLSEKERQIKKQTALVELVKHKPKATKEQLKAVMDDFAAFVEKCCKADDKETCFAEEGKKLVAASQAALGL

SMILES	solute binding parameter n (Hill coefficient) [1, 3]	Kd [1, 4]	Kd [1, 5]	Kd [1, 6]	experimental FRET efficiency E (Eexp) [1, 7]	Kd [1, 8]	Eexp [1, 9]	Eexp [1, 10]	Eexp [1, 11]	Eexp [1, 12]	measured FRET efficiency ([1]; from fluorescence data)	other results
Oc1ccc2ccccc2c1 [2‐naphthol]	0.71	64.5 µM	77 µM	6.9 µM	0.80	6.6 µM	0.71± 0.02	0.87± 0.03	0.80 ± 0.03	0.82± 0.03	80%	experimental FRET efficiency E (Eexp) ([1]; corrected by fraction of ligand-bound protein, 295 nm excitation, IFE-corrected (carprofen: 280 nm), listed as 2-Naphthol): 0.80 ± 0.03
COc1ccc2c(c1)c(CC(=O)O)c(C)n2C(=O)c1ccc(Cl)cc1 [indomethacin]	–	–	–	–	–	–	–	–	–	–	–	Kd ([2]; read-out: Kd previously reported value): 6.1 µM
O=C(O)c1c2ccccc2nc2ccccc12 [ACA, 9‐acridinecarboxylic acid]	0.67	17.5 µM	20.9 µM	18.3 µM	0.63	15.5 µM	0.64± 0.02	0.75± 0.02	0.63 ± 0.02	0.72± 0.02	63%	–
Oc1cccc2ccccc12 [1‐naphthol]	–	128 µM	104 µM	105 µM	–	137 µM	–	–	–	–	–	Eexp [1]: 0.83± 0.01 and 0.46± 0.05 and 0.79± 0.03 and 0.54± 0.03; experimental FRET efficiency E (Eexp) [1]: 0.46± 0.05 and 0.46; measured FRET efficiency [1]: 46%; solute binding parameter n (Hill coefficient) [1]: 0.73
O=C(O)c1c2ccccc2nc2ccccc12 [protonated ACA, 9-Acridinecarboxylic acid (protonated)]	–	–	–	–	0.63 ± 0.02	–	–	–	–	–	–	–

Second part, led by results:

solute binding parameter n (Hill coefficient) [1, 3]	Kd [1, 4]	Kd [1, 5]	Kd [1, 6]	experimental FRET efficiency E (Eexp) [1, 7]	Kd [1, 8]	Eexp [1, 9]	Eexp [1, 10]	Eexp [1, 11]	Eexp [1, 12]	measured FRET efficiency ([1]; from fluorescence data)	SMILES	other results
0.76	74.5 µM	75.9 µM	54.8 µM	0.60	48 µM	0.68± 0.01	0.80± 0.01	0.60 ± 0.01	0.76± 0.01	60%	O=C(O)COc1cccc2cccnc12 [QAA, (quinoline‐8‐yloxy)‐acetic acid]	Kd ([1]; Kd, excitation 295 nm, IFE-corrected): 48.1 µM; experimental FRET efficiency E (Eexp) ([1]; corrected by fraction of ligand-bound protein, 295 nm excitation, IFE-corrected (carprofen: 280 nm), listed as (Quinolin-8-yloxy)-acetic acid): 0.60 ± 0.01
0.48	–	3 µM	2.8 µM	0.81	1.8 µM	0.81 ± 0.03	0.89± 0.02	0.42± 0.04	0.71± 0.03	81%	C[C@H](C(=O)O)c1ccc2c(c1)[nH]c1ccc(Cl)cc12 [(S)‐carprofen]	Kd ([2]; read-out: Kd previous reports): 0.2 to 0.9 µM; experimental FRET efficiency E (Eexp) ([1]; corrected by fraction of ligand-bound protein, 295 nm excitation, IFE-corrected (carprofen: 280 nm), listed as Carprofen): 0.81 ± 0.03
0.33	3.9 µM	5.6 µM	5 µM	0.55	3.5 µM	0.45± 0.01	0.57± 0.03	0.55 ± 0.02	0.67± 0.03	55%	NCCNc1cccc2ccccc12 [NNE, N‐(1‐naphthyl)ethylenediamine]	experimental FRET efficiency E (Eexp) ([1]; corrected by fraction of ligand-bound protein, 295 nm excitation, IFE-corrected (carprofen: 280 nm), listed as N-(1-Naphthyl)ethylenediamine): 0.55 ± 0.02

From article PMC12716216, “Characterization of Ligand Binding in Human Serum Albumin from Atomistic Energy Transfer Simulations” (Small Methods, 2025)
